Data as given in US20170246189A1, “METHOD FOR TREATING UTERINE FIBROIDS” (LABORATOIRE HRA-PHARMA, priority 2008, published 2017).

Experiments:
fibroid = conditions: Murphy 1995, Zeng 1998; cited from earlier work
uterine fibroids = assay: Randomized, placebo-controlled, double blinded, parallel trial: change in total fibroid volume by MR imaging; type: in vivo, human (women); conditions: for reduction in fibroid volume: three months (90 days), placebo +6%
From the text: (§1) Healthy women aged 33-50 years with symptomatic fibroids and regular menstrual cycles were considered for enrollment.
(§2) Inclusion criteria included regular cycles and contraceptive use, and symptomatic fibroids as defined by ACOG practice bulletin 1994: • Excessive uterine bleeding evidenced by either of the following: profuse bleeding with flooding or clots or repetitive periods lasting for more than 8 days; or anemia due to acute or chronic blood loss; • or pelvic discomfort caused by leiomyomata, either acute or severe or chronic lower abdominal or low back pressure or bladder pressure with urinary frequency not due to urinary tract infection.
(§3) Exclusion criteria included pregnancy, hemoglobin <10 g/dL, current hormone therapy, rapidly enlarging uterus and FSH […]. MR images were obtained to record fibroid number, location and volume, before starting study drug and within 2 weeks of surgery. Women took ulipristal at an oral dose of 10 or 20 mg, or placebo (PLC: microcrystalline cellulose) for 3 cycles, or 90 days if they became anovulatory. The percent change in total fibroid volume was compared, Wilcoxon rank sum test and t-test were used as needed.

[1] = tested on: menstrual bleeding in women with symptomatic fibroids; assay: Randomized placebo-controlled trial: menstrual function / bleeding; type: in vivo, human (women); conditions: for menstrual bleeding: 3 cycles/90 days, placebo had monthly menses; for menses compared to placebo: 10 or 20 mg daily, 90 days
From the text: as §1, §2, §3
Additional analyses evaluated treatment-related differences in menstrual function.

fibroid tissue [2] = assay: Gene expression profiling (Affymetrix microarray, RT-PCR) of fibroid tissue after 90 days treatment; type: in vivo, human (women)
Description: (§4) Pre-menopausal women with symptomatic fibroids received ulipristal (10 or 20 mg; n=12) or placebo (PL) (n=6) in a blinded, randomized allocation, for 90 days before hysterectomy. No other hormonal therapy was given. Fibroid tissue and adjacent myometrium were collected at surgery and processed in RNAlater (for RNA isolation). Fibroid tissue also was processed for paraffin embedding (for immunohistochemisty (IHC) and TUNEL assay). Total RNA was used for Affymetrix microarray with the U133 Plus 2.0 human chip. Differential transcription of genes of interest was confirmed by RT-PCR analysis. The TUNEL assay and IHC for Ki67 and phosphorylaied histone 3 (phospho H3) were applied to paraffin embedded tissue sections, and the percentage of positive stained cells was noted to assess apoptosis and proliferation. RT-PCR results and proliferation assays were analyzed using two-tailed student t-test; Kruskal-Wallis test was used to assess TUNEL assay results; P<0.05 was considered significant.

fibroid tissue [3] = assay: TUNEL assay and IHC for Ki67 and phospho H3 on fibroid tissue sections (apoptosis and proliferation); type: in vivo, human (women); conditions: compared to placebo
Description: as §4

[4] = tested on: benign metastatic leiomyoma; assay: Compassionate treatment of benign metastatic leiomyoma (single patient); type: in vivo, human; conditions: daily oral dose of 10-20 mg
Description: A person with known benign metastatic leiomyoma status post abdominal surgery that confirmed multiple nodules was treated with ulipristal (daily oral dose of 10-20 mg), in a compassionate protocol. […] More importantly, their pulmonary function tests improved from 50% of predicted to 103% of predicted after 3 months of treatment. They felt better.

With `CC#C[C@]1(O)CC[C@H]2[C@@H]3CCC4=CC(=O)CCC4=C3[C@@H](c3ccc(N(C)C)cc3)C[C@@]21C` [mifepristone] as the compound, how does the fibroid size (fibroid) read?
Its fibroid size is “reduced fibroid size in a dose-dependent manner”.

With “17α-acetoxy-11β-[4N,N-dimethylamino-phenyl) -19-norpregna- 4,9-diene-3,20-dione [ulipristal]” as the compound, how does the “change in total fibroid volume” value (uterine fibroids; 10 mg and 20 mg groups combined, three months, placebo 6%, p=0.01) read?
The value was -29%.

And the “reduction in fibroid volume” value (uterine fibroids; 10 mg oral daily)?
The value was 36%.

And the “reduction in fibroid volume” value (uterine fibroids; 20 mg oral daily)?
Its value is 21%.

What about the menstrual bleeding ([1]; 10 mg oral daily) of the same compound?
Its menstrual bleeding is “single episode of menstrual bleeding”.

What about the menstrual bleeding ([1]; 20 mg oral daily) of the same compound?
The menstrual bleeding was “no woman receiving 20 mg had any bleeding”.

What about the “menses compared to placebo” value [1] of the same compound?
Its value is “induced amenorrhea”.

What about the “menses compared to placebo” value ([1]; listed as CDB-2914) of the same compound?
The value was “significant reduction in menses”.

And the “genes expressed differentially between ulipristal and placebo” value (fibroid tissue [2]; microarray, 2 fold change cut-off and P<0.02)?
Its value is 314 genes.

What about the “Fold change of RT-PCR gene product, NDP” value (fibroid tissue [2]; ulipristal (10 or 20 mg, 90 days) treated compared to placebo, P 0.001) of the same compound?
Its value is −5.6.

What about the “Fold change of RT-PCR gene product, PLP1” value (fibroid tissue [2]; ulipristal (10 or 20 mg, 90 days) treated compared to placebo, P 0.006) of the same compound?
The value was 9.2.

And the “Fold change of RT-PCR gene product, Wnt5A” value (fibroid tissue [2]; ulipristal (10 or 20 mg, 90 days) treated compared to placebo, P 0.008)?
The value was −2.4.

And the “Fold change of RT-PCR gene product, ZAK” value (fibroid tissue [2]; ulipristal (10 or 20 mg, 90 days) treated compared to placebo, P 0.014)?
Its value is 1.5.

What about the “Fold change of RT-PCR gene product, FAIM” value (fibroid tissue [2]; ulipristal (10 or 20 mg, 90 days) treated compared to placebo, P 0.017) of the same compound?
Its value is −1.8.

And the “Fold change of RT-PCR gene product, Clu” value (fibroid tissue [2]; ulipristal (10 or 20 mg, 90 days) treated compared to placebo, P 0.019)?
The value was −2.1.

And the “Fold change of RT-PCR gene product, Bcl2” value (fibroid tissue [2]; ulipristal (10 or 20 mg, 90 days) treated compared to placebo, P 0.224)?
Its value is −1.5.

And the measures of proliferation (fibroid tissue [3]; IHC Ki67 and phospho H3, fibroids after 90 days 10 or 20 mg)?
The measures of proliferation was “decreased measures of proliferation”.

What about the measures of apoptosis (fibroid tissue [3]; TUNEL assay, fibroids after 90 days 10 or 20 mg) of the same compound?
The measures of apoptosis was “increased measures of apoptosis”.

What about the liver nodule [4] of the same compound?
The liver nodule was “decrease in a liver nodule”.

What about the right pleural effusion [4] of the same compound?
Its right pleural effusion is “resolution of a right pleural effusion”.

What about the pulmonary function tests ([4]; after 3 months of treatment, improved from 50% of predicted) of the same compound?
The pulmonary function tests was 103 % of predicted.

And the uterine fibroids ([4]; two uterine fibroids)?
Its uterine fibroids is “some decrease in two uterine fibroids”.
